# Reference: PubChem BioAssay AID1259407 (Chemical Carcinogenesis Research Information System (CCRIS), 2018)
# Active and inactive are the calls of the source. The rule behind the calls is not given here.
# Tested on: CCRIS mutagenicity, Ames/micronucleus/aberration tests
# Experiment: CCRIS mutagenicity studies
# [1] = Test System: AMES SALMONELLA TYPHIMURIUM, Strain/Indicator: TA100, Metabolic Activation: NONE, Method: STANDARD PLATE
smiles,measurement,setting,value
CCCCO,mutagenic call,"Test System: AMES SALMONELLA TYPHIMURIUM, Strain/Indicator: TA98, Metabolic Activation: NONE, Method: STANDARD PLATE",inactive; negative
same,mutagenic call,"Test System: AMES SALMONELLA TYPHIMURIUM, Strain/Indicator: TA98, Metabolic Activation: RAT, LIVER, S-9, AROCLOR, Method: STANDARD PLATE",inactive; negative
same,mutagenic call,[1],inactive; negative
same,mutagenic call,"Test System: AMES SALMONELLA TYPHIMURIUM, Strain/Indicator: TA100, Metabolic Activation: RAT, LIVER, S-9, AROCLOR, Method: STANDARD PLATE",inactive; negative
same,mutagenic call,"Test System: AMES SALMONELLA TYPHIMURIUM, Strain/Indicator: UTH8413, Metabolic Activation: NONE, Method: STANDARD PLATE",inactive; negative
same,mutagenic call,"Test System: AMES SALMONELLA TYPHIMURIUM, Strain/Indicator: UTH8413, Metabolic Activation: RAT, LIVER, S-9, AROCLOR, Method: STANDARD PLATE",inactive; negative
same,mutagenic call,"Test System: AMES SALMONELLA TYPHIMURIUM, Strain/Indicator: UTH8414, Metabolic Activation: NONE, Method: STANDARD PLATE",inactive; negative
same,mutagenic call,"Test System: AMES SALMONELLA TYPHIMURIUM, Strain/Indicator: UTH8414, Metabolic Activation: RAT, LIVER, S-9, AROCLOR, Method: STANDARD PLATE",inactive; negative
C/C=C1/C[C@@H](C)[C@](O)(CO)C(=O)OCC2=CC[N+]3([O-])CC[C@@H](OC1=O)[C@@H]23 (some centres not stated),mutagenic call,"Test System: AMES SALMONELLA TYPHIMURIUM, Strain/Indicator: TA100, Metabolic Activation: RAT, LIVER, S-9, SODIUM PHENOBARBITAL AND BETA-NAPHTHOFLAVONE, Method: PREINCUBATION",inactive; negative
O=P1(N(CCCl)CCCl)NC(OO)CCO1 (configuration not stated),mutagenic call,"Test System: UDS HUMAN LYMPHOCYTES, Strain/Indicator: THY INCORP (NON-S-PHASE), Metabolic Activation: NONE, Method: LIQUID SCINTILLATION COUNTING",active; positive
Cc1ccc(CN2C3c4ccccc4-c4ccccc4C32)cc1 (configuration not stated),mutagenic call,[1],active; positive
OCCS,mutagenic call,"Test System: AMES SALMONELLA TYPHIMURIUM, Strain/Indicator: TA100, Metabolic Activation: NONE, Method: PREINCUBATION",inactive; negative
